The source of these data is PMC12045974, “T cell toxicity induced by tigecycline binding to the mitochondrial ribosome” (Nature Communications, 2025).

Molecules are shown by their SMILES.

The subject of this experiment is 55S mitochondrial ribosomes (mitoribosomes) from Jurkat T cells. The experiment in a line: Single-particle cryo-EM of mitoribosome-tigecycline complex. In kind it is binding, human. The following applies: 30 µM. As to the method:
Jurkat T cells were grown in RPM1-1640 medium ( + 10% FBS, 2.05 mM L-glutamine (Sigma), and 55 μM 2-ME (Gibco)) in a vented flask shaking at 120 rpm at 37 °C under 5% CO2. The culture was scaled up by splitting at a cell density of 1.6 × 10^6 cells/ml. A final volume of 1.5-liter cells at a density of 1 × 10^6 cells/ml was harvested by centrifugation at 1000 x g for 10 min at 4 °C. After being washed with cold PBS buffer, the cell pellet was resuspended in the cold hypotonic MSE buffer (with 0.6 M mannitol, 10 mM Tris–HCl pH 7.4, 1 mM EDTA, 0.1% BSA), and ruptured on ice by a semi-automatic homogenizer (Schuett-biotech). The lysate was clarified by centrifugation at 400 x g and 4 °C for 10 min. The pellet was resuspended and subsequently homogenized. After 3 cycles of homogenization-centrifugation, the cell lysates were combined and the mitochondria were pelleted by additional centrifugation at 11,000 x g and 4 °C for 10 min. […]
The purified mitochondria were thawed and lysed by incubating at 4 °C for 30 min in the lysis buffer (25 mM HEPES–KOH pH 7.5, 20 mM Mg(OAc)2, 50 mM KCl, 2% (vol/vol) Triton X-100, 2 mM Dithiothreitol (DTT), 1× cOmplete EDTA-free protease inhibitor cocktail (Roche), 40 U/μl RNase inhibitor (Invitrogen)). […] The concentration of the purified monosomes was quantified by nanodrop. […]

As for `CN(C)c1cc(NC(=O)CNC(C)(C)C)c(O)c2c1C[C@H]1C[C@H]3[C@H](N(C)C)C(O)=C(C(N)=O)C(=O)[C@@]3(O)C(O)=C1C2=O` [Tigecycline, tigecycline], the “occupancy on the mitoribosome” value (mtSSU and mtLSU site-1, P-site-only class) is reported as “exceeding 80%”. Moreover, the “binding sites on the mitoribosome” value (one on the mtSSU, two on the mtLSU) is “three densities corresponding to tigecycline molecules”.
